Measurements from the NIST ThermoML archive (doi:10.1016/j.jct.2011.05.017).

Experiment: xn = mol fraction of the nth substance listed
Conditions: 298.15 K, 101 kPa, Liquid, Vibrating tube method

CCC(C)Cl (stereo not drawn) [2-chlorobutane] + CC(C)CO
Conditions | mass density [kg/m3]
x1 = 0.0579 | 801.82
x1 = 0.1152 | 805.77
x1 = 0.2274 | 813.51
x1 = 0.3166 | 819.67
x1 = 0.4235 | 827.01
x1 = 0.4896 | 831.53
x1 = 0.5564 | 836.12
x1 = 0.6097 | 839.79
x1 = 0.6872 | 845.08
x1 = 0.7523 | 849.59
x1 = 0.809 | 853.54
x1 = 0.8487 | 856.33
x1 = 0.8975 | 859.77
x1 = 0.9293 | 862.05
x1 = 0.9638 | 864.55
x1 = 1 | 867.21

CCC(C)Cl (stereo not drawn) [2-chlorobutane] + CCCCOC(C)=O
Conditions | mass density [kg/m3]
x1 = 0.0787 | 875.55
x1 = 0.1618 | 874.83
x1 = 0.233 | 874.2
x1 = 0.325 | 873.36
x1 = 0.3861 | 872.8
x1 = 0.4512 | 872.2
x1 = 0.506 | 871.7
x1 = 0.5902 | 870.94
x1 = 0.6656 | 870.27
x1 = 0.7352 | 869.65
x1 = 0.7862 | 869.19
x1 = 0.8516 | 868.6
x1 = 0.8961 | 868.19
x1 = 0.9458 | 867.73
x1 = 1 | 867.21

CC(C)CO [2-methyl-1-propanol] + CCC(C)Cl
Conditions | mass density [kg/m3]
x2 = 0 | 797.82

CC(C)CO [2-methyl-1-propanol] + CCCCOC(C)=O
Conditions | mass density [kg/m3]
x2 = 0 | 797.82

CCCCOC(C)=O [butyl ethanoate] + CC(C)CO
Conditions | mass density [kg/m3]
x1 = 0.0589 | 802.41
x1 = 0.1065 | 806.12
x1 = 0.1907 | 812.7
x1 = 0.272 | 819.03
x1 = 0.3894 | 828.2
x1 = 0.4427 | 832.34
x1 = 0.5277 | 838.96
x1 = 0.607 | 845.14
x1 = 0.6829 | 851.07
x1 = 0.7405 | 855.58
x1 = 0.8166 | 861.57
x1 = 0.87 | 865.79
x1 = 0.9312 | 870.67
x1 = 1 | 876.2

CCCCOC(C)=O [butyl ethanoate] + CCC(C)Cl
Conditions | mass density [kg/m3]
x2 = 0 | 876.2
